Reference: patent US20240059671A1, “TYROSINE KINASE 2 (TYK2) DEGRADATION COMPOUNDS AND METHODS OF USE” (CULLGEN (SHANGHAI), INC., priority 2020, published 2024)

Target: TYK2 (Homo sapiens, UniProt P29597)
Assay: TYK2 protein degradation in MOLT-4 cells by immunoblotting
Type: cell-based
Set-up: endogenous in cells; host or cells: MOLT-4
Settings: MOLT-4 cells, 24 hours
How it was run: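 Percent TYK2 degradation came from densitometry of chemiluminescent immunoblots of RIPA lysates. Before lysis, MOLT-4 cells had been treated for 24 h with each compound at 0.5 or 5 μM.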

Chain of TYK2 (P29597 whole entry): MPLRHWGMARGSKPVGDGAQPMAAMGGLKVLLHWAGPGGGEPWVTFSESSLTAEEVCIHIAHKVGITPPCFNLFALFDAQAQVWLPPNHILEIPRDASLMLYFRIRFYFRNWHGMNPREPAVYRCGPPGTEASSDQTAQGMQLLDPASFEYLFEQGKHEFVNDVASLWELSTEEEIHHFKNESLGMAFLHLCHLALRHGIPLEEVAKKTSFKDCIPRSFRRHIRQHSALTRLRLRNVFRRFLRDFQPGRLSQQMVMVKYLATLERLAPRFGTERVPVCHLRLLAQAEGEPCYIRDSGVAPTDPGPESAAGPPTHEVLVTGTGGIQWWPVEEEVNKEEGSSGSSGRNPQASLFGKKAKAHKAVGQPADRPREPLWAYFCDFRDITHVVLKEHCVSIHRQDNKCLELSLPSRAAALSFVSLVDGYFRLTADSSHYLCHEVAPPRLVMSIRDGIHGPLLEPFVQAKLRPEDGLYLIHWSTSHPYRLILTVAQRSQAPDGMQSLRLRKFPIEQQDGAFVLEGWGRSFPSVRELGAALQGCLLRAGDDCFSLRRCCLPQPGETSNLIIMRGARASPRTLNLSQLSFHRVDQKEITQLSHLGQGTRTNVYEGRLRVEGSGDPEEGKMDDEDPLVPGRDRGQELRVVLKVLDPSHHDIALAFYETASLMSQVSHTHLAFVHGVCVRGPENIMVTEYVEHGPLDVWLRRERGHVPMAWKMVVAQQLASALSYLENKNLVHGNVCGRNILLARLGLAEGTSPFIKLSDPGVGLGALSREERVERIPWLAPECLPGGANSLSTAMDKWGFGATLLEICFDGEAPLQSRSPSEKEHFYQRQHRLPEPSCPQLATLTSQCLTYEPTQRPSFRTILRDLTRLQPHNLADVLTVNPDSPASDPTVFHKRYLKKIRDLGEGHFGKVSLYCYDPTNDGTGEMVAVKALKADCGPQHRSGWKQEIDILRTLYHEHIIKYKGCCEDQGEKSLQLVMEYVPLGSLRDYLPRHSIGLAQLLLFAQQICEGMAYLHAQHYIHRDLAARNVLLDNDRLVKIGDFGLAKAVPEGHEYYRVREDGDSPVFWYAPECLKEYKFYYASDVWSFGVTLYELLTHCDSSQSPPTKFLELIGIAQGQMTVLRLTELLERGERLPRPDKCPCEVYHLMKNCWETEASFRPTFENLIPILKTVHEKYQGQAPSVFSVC

Row | TYK2 Degradation (0.5 μM) | TYK2 Degradation (5 μM) | Structure (SMILES)
1 | ≤20% | ≤20% | CNC(=O)c1nnc(NC(=O)C2CC2)cc1Nc1cccc(-c2ncn(CCNC(=O)CCOCCC(=O)N[C@H](C(=O)N3C[C@H](O)C[C@H]3C(=O)NCc3ccc(-c4scnc4C)cc3)C(C)(C)C)n2)c1OC [CPD-067, 6-(Cyclopropanecarboxamido)-4-((3-(1-(2-(3-(3-(((S)-1-((2S,4R)-4-hydroxy-2-((4-(4-methylthiazol-5-yl)benzyl)carbamoyl)pyrrolidin-1-yl)-3,3-dimethyl-1-oxobutan-2-yl)amino)-3-oxopropoxy)propanamido)ethyl)-1H-1,2,4-triazol-3-yl)-2-methoxyphenyl)amino)-N-methylpyridazine-3-carboxamide]
2 | ≤20% | ≤20% | CNC(=O)c1nnc(NC(=O)C2CC2)cc1Nc1cccc(-c2ncn(CCNC(=O)COCCOCC(=O)N[C@H](C(=O)N3C[C@H](O)C[C@H]3C(=O)NCc3ccc(-c4scnc4C)cc3)C(C)(C)C)n2)c1OC [CPD-068, 6-(Cyclopropanecarboxamido)-4-((3-(1-((S)-13-((2S,4R)-4-hydroxy-2-((4-(4-methylthiazol-5-yl)benzyl)carbamoyl)pyrrolidine-1-carbonyl)-14,14-dimethyl-4,11-dioxo-6,9-dioxa-3,12-diazapentadecyl)-1H-1,2,4-triazol-3-yl)-2-methoxyphenyl)amino)-N-methylpyridazine-3-carboxamide]
3 | ≤20% | ≤20% | CNC(=O)c1nnc(NC(=O)C2CC2)cc1Nc1cccc(-c2ncn(CCNC(=O)CCOCCOCCC(=O)N[C@H](C(=O)N3C[C@H](O)C[C@H]3C(=O)NCc3ccc(-c4scnc4C)cc3)C(C)(C)C)n2)c1OC [CPD-069, 6-(Cyclopropanecarboxamido)-4-((3-(1-((S)-15-((2S,4R)-4-hydroxy-2-((4-(4-methylthiazol-5-yl)benzyl)carbamoyl)pyrrolidine-1-carbonyl)-16,16-dimethyl-4,13-dioxo-7,10-dioxa-3,14-diazaheptadecyl)-1H-1,2,4-triazol-3-yl)-2-methoxyphenyl)amino)-N-methylpyridazine-3-carboxamide]
4 | ≤20% | ≤20% | CNC(=O)c1nnc(NC(=O)C2CC2)cc1Nc1cccc(-c2ncn(CCNC(=O)COCCOCCOCC(=O)N[C@H](C(=O)N3C[C@H](O)C[C@H]3C(=O)NCc3ccc(-c4scnc4C)cc3)C(C)(C)C)n2)c1OC [CPD-070, 6-(Cyclopropanecarboxamido)-4-((3-(1-((S)-16-((2S,4R)-4-hydroxy-2-((4-(4-methylthiazol-5-yl)benzyl)carbamoyl)pyrrolidine-1-carbonyl)-17,17-dimethyl-4,14-dioxo-6,9,12-trioxa-3,15-diazaoctadecyl)-1H-1,2,4-triazol-3-yl)-2-methoxyphenyl)amino)-N-methylpyridazine-3-carboxamide]
5 | ≤20% | ≤20% | CNC(=O)c1nnc(NC(=O)C2CC2)cc1Nc1cccc(-c2ncn(CCNC(=O)CCOCCOCCOCCC(=O)N[C@H](C(=O)N3C[C@H](O)C[C@H]3C(=O)NCc3ccc(-c4scnc4C)cc3)C(C)(C)C)n2)c1OC [CPD-071, 6-(Cyclopropanecarboxamido)-4-((3-(1-((5)-18-((2S,4R)-4-hydroxy-2-((4-(4-methylthiazol-5-yl)benzyl)carbamoyl)pyrrolidine-1-carbonyl)-19,19-dimethyl-4,16-dioxo-7,10,13-trioxa-3,17-diazaicosyl)-1H-1,2,4-triazol-3-yl)-2-methoxyphenyl)amino)-N-methylpyridazine-3-carboxamide]
6 | ≤20% | ≤20% | CNC(=O)c1nnc(NC(=O)C2CC2)cc1Nc1cccc(-c2ncn(CCNC(=O)CCOCCOCCOCCOCCC(=O)N[C@H](C(=O)N3C[C@H](O)C[C@H]3C(=O)NCc3ccc(-c4scnc4C)cc3)C(C)(C)C)n2)c1OC [CPD-072, N^1-(2-(3-(3-((6-(Cyclopropanecarboxamido)-3-(methylcarbamoyl)pyridazin-4-yl)amino)-2-methoxyphenyl)-1H-1,2,4-triazol-1-yl)ethyl)-N^16-((S)-1-((2S,4R)-4-hydroxy-2-((4-(4-methylthiazol-5-yl)benzyl)carbamoyl)pyrrolidin-1-yl)-3,3-dimethyl-1-oxobutan-2-yl)-4,7,10,13-tetraoxahexadecanediamide]
7 | ≤20% | ≤20% | CNC(=O)c1nnc(NC(=O)C2CC2)cc1Nc1cccc(-c2ncn(CCNC(=O)COCCOCCOCCOCCOCC(=O)N[C@H](C(=O)N3C[C@H](O)C[C@H]3C(=O)NCc3ccc(-c4scnc4C)cc3)C(C)(C)C)n2)c1OC [CPD-073, N^1-(2-(3-(3-((6-(Cyclopropanecarboxamido)-3-(methylcarbamoyl)pyridazin-4-yl)amino)-2-methoxyphenyl)-1H-1,2,4-triazol-1-yl)ethyl)-N^17-((S)-1-((2S,4R)-4-hydroxy-2-((4-(4-methylthiazol-5-yl)benzyl)carbamoyl)pyrrolidin-1-yl)-3,3-dimethyl-1-oxobutan-2-yl)-3,6,9,12,15-pentaoxaheptadecanediamide]
8 | ≤20% | ≤20% | CNC(=O)c1nnc(NC(=O)C2CC2)cc1Nc1cccc(-c2ncn(CCNC(=O)CCOCCOCCOCCOCCOCCC(=O)N[C@H](C(=O)N3C[C@H](O)C[C@H]3C(=O)NCc3ccc(-c4scnc4C)cc3)C(C)(C)C)n2)c1OC [CPD-074, N^1-(2-(3-(3-((6-(Cyclopropanecarboxamido)-3-(methylcarbamoyl)pyridazin-4-yl)amino)-2-methoxyphenyl)-1H-1,2,4-triazol-1-yl)ethyl)-N^19-((S)-1-((2S,4R)-4-hydroxy-2-((4-(4-methylthiazol-5-yl)benzyl)carbamoyl)pyrrolidin-1-yl)-3,3-dimethyl-1-oxobutan-2-yl)-4,7,10,13,16-pentaoxanonadecanediamide]
9 | ≤20% | ≤20% | CNC(=O)c1nnc(NC(=O)C2CC2)cc1Nc1cccc(-c2ncn(CCNC(=O)CCC(=O)N[C@H](C(=O)N3C[C@H](O)C[C@H]3C(=O)NCc3ccc(-c4scnc4C)cc3)C(C)(C)C)n2)c1OC [CPD-075, N^1-(2-(3-(3-((6-(Cyclopropanecarboxamido)-3-(methylcarbamoyl)pyridazin-4-yl)amino)-2-methoxyphenyl)-1H-1,2,4-triazol-1-yl)ethyl)-N^4-((S)-1-((2S,4R)-4-hydroxy-2-((4-(4-methylthiazol-5-yl)benzyl)carbamoyl)pyrrolidin-1-yl)-3,3-dimethyl-1-oxobutan-2-yl)succinamide]

Further lines, the compound ahead of its results:

Row | Structure (SMILES) | TYK2 Degradation (0.5 μM) | TYK2 Degradation (5 μM)
10 | CNC(=O)c1nnc(NC(=O)CNC(=O)CCOCCNc2ccc3c(c2)C(=O)N(C2CCC(=O)NC2=O)C3=O)cc1Nc1cccc(-c2ncn(C)n2)c1OC (stereo not drawn) [CPD-061, 6-(2-(3-(2-((2-(2,6-Dioxopiperidin-3-yl)-1,3-dioxoisoindolin-5-yl)amino)ethoxy)propanamido)acetamido)-4-((2-methoxy-3-(1-methyl-1H-1,2,4-triazol-3-yl)phenyl)amino)-N-methylpyridazine-3-carboxamide] | ≤20% | ≤20%
11 | CNC(=O)c1nnc(NC(=O)CNC(=O)CCOCCOCCNc2ccc3c(c2)C(=O)N(C2CCC(=O)NC2=O)C3=O)cc1Nc1cccc(-c2ncn(C)n2)c1OC (stereo not drawn) [CPD-062, 6-(2-(3-(2-(2-((2-(2,6-Dioxopiperidin-3-yl)-1,3-dioxoisoindolin-5-yl)amino)ethoxy)ethoxy)propanamido)acetamido)-4-((2-methoxy-3-(1-methyl-1H-1,2,4-triazol-3-yl)phenyl)amino)-N-methylpyridazine-3-carboxamide] | ≤20% | ≤20%
12 | CNC(=O)c1nnc(NC(=O)CNC(=O)CCOCCOCCOCCNc2ccc3c(c2)C(=O)N(C2CCC(=O)NC2=O)C3=O)cc1Nc1cccc(-c2ncn(C)n2)c1OC (stereo not drawn) [CPD-063, 6-(1-((2-(2,6-Dioxopiperidin-3-yl)-1,3-dioxoisoindolin-5-yl)amino)-12-oxo-3,6,9-trioxa-13-azapentadecan-15-amido)-4-((2-methoxy-3-(1-methyl-1H-1,2,4-triazol-3-yl)phenyl)amino)-N-methylpyridazine-3-carboxamide] | ≤20% | 30%
13 | CNC(=O)c1nnc(NC(=O)CNC(=O)CCOCCOCCOCCOCCNc2ccc3c(c2)C(=O)N(C2CCC(=O)NC2=O)C3=O)cc1Nc1cccc(-c2ncn(C)n2)c1OC (stereo not drawn) [CPD-064, 6-(1-((2-(2,6-Dioxopiperidin-3-yl)-1,3-dioxoisoindolin-5-yl)amino)-15-oxo-3,6,9,12-tetraoxa-16-azaoctadecan-18-amido)-4-((2-methoxy-3-(1-methyl-1H-1,2,4-triazol-3-yl)phenyl)amino)-N-methylpyridazine-3-carboxamide] | ≤20% | ≤20%
14 | CNC(=O)c1nnc(NC(=O)CNC(=O)CCOCCOCCOCCOCCOCCNc2ccc3c(c2)C(=O)N(C2CCC(=O)NC2=O)C3=O)cc1Nc1cccc(-c2ncn(C)n2)c1OC (stereo not drawn) [CPD-065, 6-(1-((2-(2,6-Dioxopiperidin-3-yl)-1,3-dioxoisoindolin-5-yl)amino)-18-oxo-3,6,9,12,15-pentaoxa-19-azahenicosan-21-amido)-4-((2-methoxy-3-(1-methyl-1H-1,2,4-triazol-3-yl)phenyl)amino)-N-methylpyridazine-3-carboxamide] | ≤20% | ≤20%
15 | CNC(=O)c1nnc(NC(=O)C2CC2)cc1Nc1cccc(-c2ncn(CCNC(=O)COCC(=O)N[C@H](C(=O)N3C[C@H](O)C[C@H]3C(=O)NCc3ccc(-c4scnc4C)cc3)C(C)(C)C)n2)c1OC [CPD-066, 6-(Cyclopropanecarboxamido)-4-((3-(1-(2-(2-(2-(((S)-1-((2S,4R)-4-hydroxy-2-((4-(4-methylthiazol-5-yl)benzyl)carbamoyl)pyrrolidin-1-yl)-3,3-dimethyl-1-oxobutan-2-yl)amino)-2-oxoethoxy)acetamido)ethyl)-1H-1,2,4-triazol-3-yl)-2-methoxyphenyl)amino)-N-methylpyridazine-3-carboxamide] | ≤20% | ≤20%
